Experimental data: US20040153145A1, “Fixation method for bioprostheses” (Clemson University, priority 2002, published 2004)

Tests used:
[1] = Thermal denaturation temperature (Td) of fixed pericardium by DSC; type: physicochemical, bovine; conditions: for Td after 24 hours / Td after 44 hours: bovine pericardium, +/− SEM, n = 6; for Td after 24 hours: fixation 24 hours; for Td after 44 hours: fixation 44 hours
Experimental: Collagen rich tissue was used as a model to test the possible interference of TA with GA-mediated fixation. Samples of bovine pericardium (tissue including about 85% collagen and 5-10% elastin) was fixed at room temperature in one of either: 1% TA in phosphate buffered saline at pH 7.4 for 24 and 44 hours (TA); 0.5% GA in phosphate buffered saline at pH 7.4 for 24 and 44 hours (GA); 0.5% GA in phosphate buffered saline at pH 7.4 for 60 minutes followed by 1% TA in phosphate buffered saline at pH 7.4 for 24 and 44 hours (GA/TA); or 1% TA in phosphate buffered saline at pH 7.4 for 60 minutes followed by 0.5% GA in phosphate buffered saline at pH 7.4 for 24 and 44 hours (TA/GA). After fixation, tissues were washed in normal saline and the extent of cross-linking was evaluated by analysis of the thermal denaturation temperature (Td). Td reflects that the temperature at which native collagen molecules unravel (around 65° C.) is increased in chemically cross-linked tissues. […]. In the case of connective tissues, Td represents the temperature at which native collagen molecules unravel. This process leads to protein denaturation and is recorded as a peak maximum (FIG. 1). […] Tissues (native, GA fixed, TA fixed, and GA/TA combination fixed, as described above) were rinsed in saline and 2 mm^2 samples were cut and hermetically sealed in Differential Scanning Calorimetry (DSC) aluminum pans. Samples were heated at a rate of 10° C./min, from 25° C. to 110° C. and the temperature of thermal denaturation (Td) for each sample was recorded on a Perkin Elmer DSC 7 machine.

[2] = Mass loss of fixed aortic wall after elastase digestion; set-up: species or system Porcine; conditions: for % Mass Loss: porcine aortic wall fixed 7 days, 8.5 Units pancreatic elastase, 2 days, 37° C.; for increase in resistance to elastase of aorta: versus fresh aortic wall (60% mass loss in 2 days)
Experimental: Porcine aorta fragments were collected from a local slaughterhouse and placed in ice-cold saline. The aorta fragments were fixed separately with GA, TA, and a combination of GA and TA as described below. Following fixation, the samples were treated with high concentrations of elastase to test resistance to enzymatic degradation.
(§1) Porcine aortic conduits were fixed for 7 days at room temperature in either:
0.6% GA in 50 mM Hepes buffered saline at pH 7.4 (GA);
0.3% TA in 50 mM Hepes buffered saline at pH 7.4 (TA); or
A mixture of 0.6% GA and 0.3% TA in 50 mM Hepes buffered saline at pH 7.4 (GA & TA).
After fixation, tissues were washed in normal saline followed by ddH2O and fragments of 4×4 mm were dissected and lyophilized. Tissue fragments from each group were weighed and incubated for 2 days (about 48 hours) at 37° C. with 8.5 Units of pancreatic elastase in elastase buffer (50 mM Tris, 1 mM CaCl2, 0.02% NaN3, pH 7.8). As positive controls, fresh, untreated tissues exposed to elastase solution were used. Tissue fragments were thoroughly rinsed in ddH2O, lyophilized and weighed. Mass loss due to enzyme digestion was calculated from the difference between tissue weight before and after incubation in elastase. Lower values of Mass Loss, set forth in Table 2 and FIG. 3, are indicative of better tissue preservation and improved putative protection of elastin from enzymatic degradation.

[3] = Calcification of fixed aorta after subdermal implantation in juvenile rats; type: in vivo, Sprague-Dawley rats; conditions: porcine aorta, subdermal implant in juvenile rats, +/− SEM, n = 10
Experimental: Porcine aorta fragments were collected from a local slaughterhouse and placed in ice-cold saline. The aorta fragments were fixed with GA and separately with a combination of GA and TA as described below. Following fixation, samples were implanted subdermally in juvenile rats to test for calcification potential.
as §1
0.6% GA in 50 mM Hepes buffered saline at pH 7.4 (GA); or
a mixture of 0.6% GA and 0.3% TA in 50 mM Hepes buffered saline at pH 7.4 (GA & TA).
After fixation, tissues were washed in normal saline and fragments of 4×4 mm were tested for calcification by subdermal implantation in juvenile rats (the process used is described in detail by Bailey M, Xiao H, Ogle M, Vyavahare N., ‘Aluminum chloride pretreatment of elastin inhibits elastolysis by matrix metalloproteinases and leads to inhibition of elastin-oriented calcification,’ The American Journal of Pathology, 2001;159(6):1981-6, which is herein incorporated by reference). […]
At 7 and 21 days after implantation, rats were humanely euthanized, tissue samples explanted from their subdermal pouches, dried and analyzed for calcium content using atomic absorbtion spectrophotometry (as outlined in publication above). […]

[4] = system: pure elastin; experiment: Degradation of orcein-labeled pure elastin by elastase; type: biochemical; conditions: versus buffer control elastin, completely degraded
Experimental: Pure elastin labeled with orcein was used as a substrate for the enzyme elastase. The labeled elastin substrate was used per se, as well as labeled elastin fixed separately with glutaraldehyde (GA) and with tannic acid (TA).
Purified insoluble elastin labeled with orcein was treated for 24 hours at room temperature with one of:
0.6% GA in 50 mM Hepes buffered saline at pH 7.4 (GA-fixed elastin);
0.3% TA in 50 mM Hepes buffered saline at pH 7.4 (TA-fixed elastin); or
50 mM Hepes buffered saline at pH 7.4 (Buffer control).
Elastin samples were centrifuged at 3000 rpm for 10 minutes at room temperature, rinsed with double distilled (dd)H2O and dialyzed in ddH2O. Treated elastin was suspended in elastase buffer (50 mM Tris, 1 mM CaCl2, 0.02% NaN3, pH 7.8) at a concentration of 20 mg/ml. A blank of labeled elastin incubated in the absence of elastase was also prepared for comparison.
Pure pancreatic elastase was prepared at a concentration of 1 Unit/ml in elastase buffer (described above), mixed with treated elastin samples in a 1 to 1 ratio and incubated at 37° C. for 3 days. Samples were centrifuged and elastin degradation was assessed by measuring the presence of soluble orcein-labeled elastin peptides in supernatants, by measuring optical density at 570 nm.

Row | SMILES | Td after 24 hours [1] | Td after 44 hours [1] | % Mass Loss [2] | increase in resistance to elastase of aorta [2] | Td ([1]; pericardium, DSC 10° C./min, FIG. 1, fresh around 65° C.) | Calcium content after 7 days ([3]; 7 days) | Calcium content after 21 days ([3]; 21 days) | reduction of elastin degradation by elastase [4]
1 | O=C(OC[C@H]1O[C@@H](OC(=O)c2cc(O)c(O)c(OC(=O)c3cc(O)c(O)c(O)c3)c2)[C@H](OC(=O)c2cc(O)c(O)c(OC(=O)c3cc(O)c(O)c(O)c3)c2)[C@@H](OC(=O)c2cc(O)c(O)c(OC(=O)c3cc(O)c(O)c(O)c3)c2)[C@@H]1OC(=O)c1cc(O)c(O)c(OC(=O)c2cc(O)c(O)c(O)c2)c1)c1cc(O)c(O)c(OC(=O)c2cc(O)c(O)c(O)c2)c1 [TA, tannic acid] | 68.4 +/− 1.4 °C | 72.6 +/− 0.9 °C | 41.56% | about 20% |  |  |  | 
2 | O=CCCCC=O [GA, glutaraldehyde] | 84.5 +/− 0.7 °C | 85.1 +/− 1.1 °C | 39.33% | about 20% | 87 °C | 15.31 +/− 1.54 μg Ca/mg dry | 42.18 +/− 2.21 μg Ca/mg dry | 6.7%
